# In patent US7999069B2, “EphB receptor-binding peptides” (Sanford-Burnham Medical Research Institute, priority 2005, dated 2011):
# pIC50: −log10 of the molar value. Several values for one entry are separate records, joined by “and”; a condition that tells them apart may be missing. Identical values can stand only once. Like-named read-outs stand apart in the source and are kept apart here. No end group written: not given here.
# Legend:
# [1] = target: T1, EphB4 (Homo sapiens, UniProt P54760); experiment: Inhibition of ephrin-B2 AP binding to immobilized EphB4 ectodomain
# T1 construct: panned on the ectodomains of EphB1, EphB2, or EphB4 fused to human Fc
# T1 sequence (P54760 16-539 limits assumed): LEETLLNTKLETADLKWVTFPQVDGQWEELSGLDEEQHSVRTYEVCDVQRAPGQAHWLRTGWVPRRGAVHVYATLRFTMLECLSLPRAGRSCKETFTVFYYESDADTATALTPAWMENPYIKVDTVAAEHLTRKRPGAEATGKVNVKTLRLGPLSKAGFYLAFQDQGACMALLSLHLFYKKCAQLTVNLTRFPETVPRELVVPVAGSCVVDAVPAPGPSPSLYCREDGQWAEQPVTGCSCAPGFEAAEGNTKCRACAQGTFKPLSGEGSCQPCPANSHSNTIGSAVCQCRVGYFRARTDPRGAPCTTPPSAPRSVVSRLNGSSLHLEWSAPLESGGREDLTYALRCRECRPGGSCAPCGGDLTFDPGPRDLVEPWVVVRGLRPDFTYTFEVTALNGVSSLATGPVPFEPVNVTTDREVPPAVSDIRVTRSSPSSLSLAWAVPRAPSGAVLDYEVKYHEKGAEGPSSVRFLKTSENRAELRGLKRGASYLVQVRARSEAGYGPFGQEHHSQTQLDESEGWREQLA
# Procedure: Peptides that bind to the same receptor region as the ephrins would be expected to inhibit Eph receptor-ephrin association, if they interact with sufficient affinity. A number of synthetic peptides were tested for their ability to inhibit binding of alkaline phosphatase-tagged ephrin-B2 (ephrin-B2-AP) to EphB receptors (FIG. 3). Most of the peptides were synthesized with a biotin tag and immobilized on streptavidin plates to verify their ability to capture the EphB ectodomains used for their isolation.
# Ephrin-B2 AP binding to the indicated immobilized EphB receptor ectodomains was measured in the presence of the indicated peptides and detected by measuring alkaline phosphatase activity. […]. […] Wells coated with the different EphB ectodomains were incubated with ephrin-B2 AP and 50 μM of the indicated peptides. Ephrin-B2 AP binding in the presence of peptide was normalized to binding in the absence of peptide. All peptides were biotinylated except for FSPQ and EWYM. […] Therefore, IPWT was not used for further experiments. The EWYM, TWO, and FSPQ peptides were not synthesized with a biotin tag and therefore were tested directly for inhibition of ephrin-B2 binding. The EWLS, SNEW, and TNYL peptides were selective because they antagonized ephrin binding to only one EphB receptor (FIGS. 3B, D, and F).
# The GP motif aligns with the GP motif of TNYL and the RAW motif aligns precisely next to the last amino acid of TNYL. […] For competition assays between peptides and ephrin-B2 alkaline phosphatase fusion protein (ephrin-B2 AP), the concentration of ephrin-B2 AP used was adjusted to obtain similar signals with different EphB receptors (0.135-1.45 OD min^−1ml^−1). Ephrin-B2 AP was co-incubated for 1 hr with different peptide concentrations in Ni-NTA wells coated with 1 μg/ml Eph receptor Fc. After several washes, the amount of ephrin-B2-AP bound was quantified using p-nitrophenylphosphate as a substrate. Alkaline phosphatase activity from wells without EphB Fc was subtracted as background. […] […]. In these experiments, the two peptides are not biotinylated. […] Ephrin-B2-AP binding in the presence of peptide was normalized to binding in the absence of peptide in (A) and (B). […] Endogenous EphB4 was immunoprecipitated from MCF7 breast cancer cells after stimulation with ephrin-B2 Fc, or Fc as a control, and probed by immunoblotting with anti-phosphotyrosine antibodies (PTyr). […] The filters were reprobed with EphB4 antibodies to confirm equal amounts of immunoprecipitated receptor.
# [2] = test system: Eph receptor Fc proteins; experiment: Immobilized biotinylated peptides capturing Eph receptor Fc proteins on streptavidin plates; assay type: binding; settings: for Eph receptor binding selectivity of immobilized biotinylated peptide: A- and B-class Eph receptor Fc proteins
# Procedure: To measure the specificity of peptide binding to Eph receptors, biotinylated peptides were immobilized on streptavidin-coated plates at 10 μM (Pierce Biotechnology, Rockford, Ill.) and incubated for 1 hr with different Eph ectodomain Fc fusion proteins at 2.5 μg/ml in binding buffer. Bound receptor was detected using an anti-Fc antibody coupled to alkaline phosphatase (Promega) with p-nitrophenylphosphate as substrate (Pierce). The background that was subtracted from the measurements was determined by omitting the Eph ectodomain.
# Biotinylated peptides were immobilized on streptavidin-coated plates and used to capture Eph receptor Fc proteins. Bound receptor was detected using anti-Fc antibody coupled to alkaline phosphatase and was normalized to the value in the well with highest receptor binding.
# [3] = target: T2, EphB4 (Homo sapiens, UniProt P54760); experiment: Ephrin-B2 Fc-induced EphB4 tyrosine phosphorylation in breast cancer cells; assay type: cell-based; settings: MCF7 cells
# T2 construct: MCF-7 human breast cancer cells, which endogenously express EphB4; endogenous in cells; host or cells: MCF7
# T2 sequence (P54760 16-987): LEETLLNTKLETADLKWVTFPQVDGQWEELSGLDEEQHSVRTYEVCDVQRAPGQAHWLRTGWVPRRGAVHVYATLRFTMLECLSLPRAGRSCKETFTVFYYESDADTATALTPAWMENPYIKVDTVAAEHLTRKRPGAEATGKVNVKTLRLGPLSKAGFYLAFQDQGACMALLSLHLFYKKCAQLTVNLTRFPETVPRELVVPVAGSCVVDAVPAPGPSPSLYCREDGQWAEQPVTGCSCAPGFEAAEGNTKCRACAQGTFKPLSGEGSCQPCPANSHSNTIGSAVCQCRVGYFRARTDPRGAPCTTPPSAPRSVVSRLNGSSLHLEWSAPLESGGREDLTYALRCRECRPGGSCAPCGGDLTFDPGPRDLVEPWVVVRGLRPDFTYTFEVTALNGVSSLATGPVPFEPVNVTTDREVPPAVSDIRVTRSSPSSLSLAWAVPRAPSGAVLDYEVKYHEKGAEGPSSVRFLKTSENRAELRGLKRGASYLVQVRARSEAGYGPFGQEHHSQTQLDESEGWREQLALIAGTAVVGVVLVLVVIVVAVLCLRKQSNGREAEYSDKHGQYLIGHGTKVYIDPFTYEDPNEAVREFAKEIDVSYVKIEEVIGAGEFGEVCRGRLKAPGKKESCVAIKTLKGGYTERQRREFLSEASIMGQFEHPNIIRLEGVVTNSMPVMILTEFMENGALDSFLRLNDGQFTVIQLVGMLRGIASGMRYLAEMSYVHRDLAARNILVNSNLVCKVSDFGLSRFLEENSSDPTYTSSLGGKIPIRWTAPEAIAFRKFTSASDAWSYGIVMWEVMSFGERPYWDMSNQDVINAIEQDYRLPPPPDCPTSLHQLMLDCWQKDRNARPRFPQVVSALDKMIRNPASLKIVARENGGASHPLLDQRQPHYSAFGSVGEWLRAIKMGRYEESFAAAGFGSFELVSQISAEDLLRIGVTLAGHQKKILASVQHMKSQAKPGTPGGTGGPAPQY
# Procedure: Preincubation of COS cells with the SNEW peptide in a concentration-dependent manner blocked the ability of ephrin-B1 Fc to induce tyrosine phosphorylation, and therefore activation, of endogenous EphB2 (FIG. 4A). EphB2 was immunoprecipitated from COS cells after stimulation with ephrin-B1 Fc, or Fc as a control, in the presence of the indicated concentrations of SNEW peptide and control RTVA peptide. For EphB2 immunoprecipitations, COS cells were serum-starved in DME high glucose for 3 hrs prior to stimulation with 1 μg/ml ephrin-B1 Fc or Fc protein in the presence or absence of EphB2-binding peptides or a control peptide. […] After ephrin stimulation, the cells were lysed in modified RIPA buffer (150 mM NaCl, 1 mM EDTA, 1% Triton X-100, 1% Na deoxycholate, 0.1% SDS, 20 mM Tris pH 8.0) with protease inhibitors and 1 mM sodium orthovanadate. Cell lysates were used for immunoprecipitation with either 5 μg EphB2 antibodies or 10 μg EphB4 antibodies. […]
# The GP motif aligns with the GP motif of TNYL and the RAW motif aligns precisely next to the last amino acid of TNYL. […] After several washes, the amount of ephrin-B2-AP bound was quantified using p-nitrophenylphosphate as a substrate. […]
# [4] = test system: EphB receptors; experiment: Ephrin-B2 AP binding to different EphB ectodomains in presence of peptide (selectivity); settings: 10 μM peptide
# Procedure: Ephrin-B2 AP binding to the indicated immobilized EphB receptor ectodomains was measured in the presence of the indicated peptides and detected by measuring alkaline phosphatase activity. […] Wells coated with the different EphB ectodomains were incubated with ephrin-B2 AP and 50 μM of the indicated peptides. Ephrin-B2 AP binding in the presence of peptide was normalized to binding in the absence of peptide. All peptides were biotinylated except for FSPQ and EWYM. […] The EWYM, TWO, and FSPQ peptides were not synthesized with a biotin tag and therefore were tested directly for inhibition of ephrin-B2 binding.
# Ephrin-B2 AP was co-incubated for 1 hr with different peptide concentrations in Ni-NTA wells coated with 1 μg/ml Eph receptor Fc. After several washes, the amount of ephrin-B2-AP bound was quantified using p-nitrophenylphosphate as a substrate. Alkaline phosphatase activity from wells without EphB Fc was subtracted as background. […] In these experiments, the two peptides are not biotinylated. […] Ephrin-B2-AP binding in the presence of peptide was normalized to binding in the absence of peptide in (A) and (B).
# [5] = Solubility in aqueous buffers; assay type: physicochemical
# Text: To determine whether different phage clones target overlapping Eph receptor binding sites, the EWLS EphB1-binding peptide and the TNYL EphB4-binding peptide were chemically synthesized. […] Peptides were synthesized using Fmoc (N-(9-fluorenyl)methoxycarbonyl) chemistry and purified by high pressure liquid chromatography. Biotinylated peptides were synthesized with a carboxy-terminal GSGSK linker with biotin attached to the lysine side chain or with a carboxy-terminal GSGS sequence linked to a carboxy-terminal N-biotinyl-N′-Fmoc-ethylenediamine (Novabiochem). Matrix-assisted laser desorption ionization-time of flight mass spectrometry was used to verify proper peptide synthesis, and purity. Stock solutions of the peptides were dissolved in phosphate buffered saline (PBS, Irvine Scientific) and the pH was verified to be ˜6.5. […] Peptide concentrations were calculated based on (O)280.
# [6] = target: T2, EphB4; experiment: Peptide pull-down of EphB4 from MCF7 or transfected 293T cells; assay type: binding
# Procedure: The ability of the peptides to bind in a stable manner, which is important for both targeting and competitive inhibition, was tested in pull-down experiments. For peptide pull-down experiments, cells in 60 cm plates at 70% confluency or adult mouse brain tissue were solubilized in pull-down buffer (50 mM HEPES pH 7.5, 150 mM NaCl, 10% glycerol, 1% Triton-X100, 5 mM KCl and 1 mM EDTA). Three μg of biotinylated peptide were incubated for 45-90 min with 5 μl streptavidin agarose beads (Sigma), unbound peptide was washed away, and the beads were incubated with the cell lysates for 45-90 min. Proteins bound to the beads were separated by SDS-polyacrylamide gel electrophoresis and probed by immunoblotting with EphB1, EphB2, or EphB4 antibodies. The EphB1 antibody (Santa Cruz) was detected with a secondary anti-goat IgG peroxidase-conjugated antibody (BioRad Laboratories). The EphB2 and EphB4 antibodies were affinity-purified polyclonal antibodies to GST fusion proteins containing approximately 100 amino acids from the carboxy-terminal tails of the EphB2 or EphB4 receptors (Noren, N. K. et al. 2004 PNAS USA 101:5583-5588; Holash, J. A. & Pasquale, E. B. 1995 Devel Biol 172:683-693) and were detected with a secondary anti-rabbit IgG peroxidase-conjugated antibody (Amersham Biosciences).
# Endogenous EphB receptors were isolated from lysates of mouse brain or cultured cells using the EWLS, SNEW, and TNYL peptides immobilized on streptavidin beads (FIGS. 5B, F, G and H). […] RTVA was used as a control peptide for the EphB4 pull downs. The NPVI peptide could isolate EphB4 from transfected cells but not endogenous EphB4 from MCF7 cells, which is present at lower levels (FIGS. 5B, F, G and H). […] EphB receptors were not detected bound to the beads coated with the other peptides.
# [7] = Peptide IC50: concentration of peptide required to inhibit ephrin-B2 AP binding by 50%, biotinylated synthetic peptides except EWYM and FSPQ
molecule,measurement,setting,value
DHNHNLYNPWRL [SEQ ID NO 21],pIC50,[1]; [7],~3.70
SEQ ID NO 10: 12-mer from EphB2 panning; printed DHWRI[image]PFSLSS (DHWRILPFSLSS),Eph receptor binding selectivity of immobilized biotinylated peptide,[2],less specific
CC[C@H](C)[C@H](NC(=O)[C@@H]1CCCN1C(=O)CNC(=O)[C@H](CC(N)=O)NC(=O)[C@@H]1CCCN1C(=O)[C@H](CO)NC(=O)[C@H](Cc1ccccc1)NC(=O)[C@H](CC(C)C)NC(=O)[C@H](Cc1ccc(O)cc1)NC(=O)[C@H](CC(N)=O)NC(=O)[C@@H](N)[C@@H](C)O)C(=O)N[C@@H](C)C(=O)O [SEQ ID NO 24],pIC50,[1]; [7],~4.30
same,pIC50,"[1]; non-biotinylated peptide, read-out: IC50 for inhibition of ephrin-B2 AP binding",3.82 and ~3.82
TNYLFSPNGPIARAW [TNYL-RAW],pIC50,"[1]; non-biotinylated peptide or dimeric ephrin-B2 Fc, read-out: IC50 for inhibition of ephrin-B2 AP binding to EphB4",~7.82
same,Inhibition of basal EphB4 tyrosine phosphorylation,[3],inhibited
same,Inhibition of ephrin-B2 Fc-induced EphB4 tyrosine phosphorylation,[3]; concentration-dependent,inhibited in a concentration-dependent manner EphB4 tyrosine phosphorylation
same,Selectivity of antagonism of ephrin-B2 AP binding across EphB ectodomains,[4],inhibits binding of ephrin-B2 AP to the immobilized EphB4 ectodomain but not other EphB ectodomains
CC[C@H](C)[C@H](NC(=O)[C@H](C)NC(=O)[C@H](Cc1ccccc1)NC(=O)[C@@H]1CCCN1C(=O)[C@H](CCC(=O)O)NC(=O)[C@@H](NC(=O)[C@@H](NC(=O)[C@H](Cc1c[nH]c2ccccc12)NC(=O)[C@H](Cc1c[nH]cn1)NC(=O)[C@@H](N)Cc1c[nH]c2ccccc12)[C@@H](C)O)[C@@H](C)CC)C(=O)N[C@H](C(=O)N[C@@H](CO)C(=O)O)[C@@H](C)O [SEQ ID NO 8],Solubility in aqueous buffers,[5],low solubility
SEQ ID NO 34: 12-mer from EphB4 panning; printed IPWTQ[image]MAMSPM (IPWTQHMAMSPM),Capture of the EphB ectodomain used for isolation by immobilized biotinylated peptide,[2]; EphB4,failed to bind
NPVIGPIQRAWT [SEQ ID NO 27],Pull-down of endogenous EphB4,[6]; MCF7 breast cancer cell line,did not detectably bind
same,Pull-down of transfected EphB4,[6]; transfected 293T human embryonic kidney cells,bound the more highly expressed EphB4
SEQ ID NO 14: 12-mer from EphB2 panning; printed SHW[image]ISPYSLLS (SHWPISPYSLLS),Eph receptor binding selectivity of immobilized biotinylated peptide,[2],less specific
